Measured values taken from patent publication US20100168406A1, “USE OF GINSENOSIDE Rb2 MONOMER IN THE MANUFACTURE OF MEDICAMENTS FOR THROMBOLYSIS” (priority 2006, published 2010).

Legend:
thrombi = test: In vitro thrombolytic effect on capillary thrombi (24 h, 37° C.); type: biochemical, Wistar rats
Procedure: Nine female Wistar rats were used. Blood samples were taken from postorbital venous plexus using hard neutral glass capillary, 4 capillaries for each rat and 36 capillaries in total. The capillaries which contained the blood samples were left over night and the thrombi were then removed. The 4 thrombus samples of each rat were placed into test tubes containing 1 ml NS solution, 1000 U urokinase in 1 ml NS solution, 1 mg Rb2 (80%) in 1 ml NS solution and 1 mg Rb2 (98%) in 1 ml NS solution, respectively. All the test tubes were placed into a water bath at a temperature of 37° C. with shaking at an interval of 30 minutes. 24 hours later, the solutions were decanted, the remaining thrombi were weighed and the thrombolysis rate was calculated. Thrombolysis rate=(starting weight of thrombus−remaining weight of thrombus)/starting weight of thrombus×100%

[1] = test system: arteriovenous shunt thrombus in rats; test: Arteriovenous shunt thrombosis method, in vivo thrombolytic effect; parameters: species or system Winstar rats; conditions: femoral vein injection given twice
Procedure: Arteriovenous shunt thrombosis method was applied in Winstar rats to observe the inhibition of thrombosis in rats. Under intraperitoneal anesthesia with mebumal sodium, a polyethylene tube penetrated by a silk thread was placed between the right common carotid artery and the left external jugular vein, to allow blood flow through the thread for 15 min. Upon formation of a thrombus, the test agents were injected into femoral vein, and again after an interval of 15 min, both of the same dosage. 45 min post administration, the silk thread was removed rapidly and weighed. Subtraction of the weight of silk thread from the total weight yielded the weight of the thrombus (mg). The thrombus was dried in an oven at a temperature of 60° C. for 4 hours, so as to give the dry weight (mg) of the thrombus.

blood clots = test: In vitro thrombolytic effect on rat blood clots (6 h, 37° C.); type: biochemical, rats
Procedure: Rats used in the study were anaesthetized by urethane. Blood samples were taken from abdominal aorta, placed in plastic tubes, and were removed after 24 hours of coagulation. The blood clot was semi-blotted with filter paper and cut into pieces. 90 to 120 mg blood clots were accurately weighed and put into test tubes, to which NS, an Rb2 solution of 200 μg/ml, 100 μg/ml, or 50 μg/ml, or a urokinase solution of 50 U/ml, in a volume of 1 ml was added, respectively, and were then placed into a thermostatic horizontal shaking bath at a temperature of 37° C. and with a shaking frequency of 90 times/min for 6 hours. The undissolved blood clots were removed and weighed after semi-blotting with filter paper. The relative thrombolysis rate was calculated. SPSS 10.0 statistical software was used to perform t test among groups.

KunMing mice [2] = test: Auricle microcirculation in mice with Isoprel-induced acute myocardial necrosis; type: in vivo; conditions: 40 mg/kg intraperitoneal Day 1-7, Isoprel 7.5 mg/kg sc Day 5 and 6, 30 min after last dose
Procedure: (§1) 20 KunMing mice, 10 male and 10 female, were randomly divided into the control group and the administration group. The control group received intraperitoneal injection of physiological saline from Day 1 to Day 7 and subcutaneous injection of Isoprel at a dosage of 0.3 ml (7.5 mg/kg) on Day 5 and Day 6. The ginsenoside monomer Rb2 administration group received intraperitoneal injection of ginsenoside monomer Rb2 at a dosage of 40 mg/kg for 4 consecutive days; subcutaneous injection of Isoprel at a dosage of 0.3 ml (7.5 mg/kg) followed by intraperitoneal injection of ginsenoside monomer Rb2 at a dosage of 40 mg/kg on Day 5; intraperitoneal injection of ginsenoside monomer Rb2 at a dosage of 40 mg/kg followed by subcutaneous injection of Isoprel on Day 6. On Day 7, 30 min after intraperitoneal injection of ginsenoside monomer Rb2, the auricle microcirculation was determined. The data obtained from the study were subjected to t-test between groups.

KunMing mice [3] = test: Degree of cardiomyopathy (HE staining of heart) in Isoprel-induced acute myocardial necrosis; type: in vivo; conditions: 40 mg/kg intraperitoneal, Isoprel-treated mice, of 10 animals
Procedure: as §1
After the determination of auricle microcirculation, animals were sacrificed and heart samples were removed for HE staining for microscopic examination. The samples were classified according to the grading standards for cardiomyopathy.

mice = test: Effect of Rb2 (~60%) on auricle microcirculation in mice; type: in vivo; conditions: 120 mg/10 ml/kg intragastric for 3 days, 30 minutes after last administration
Procedure: 20 mice, 10 male and 10 female, were randomly divided into the control group and the administration group. Animals in the administration group received intragastric administration of Rb2 at 120 mg/10 ml/kg for 3 days. Animals in the control group were given water of the same volume. The calibers, flow rate and flow pattern of V3 grade arteriole and venule were determined 30 minutes after the last administration. The data obtained from the study was subjected to t-test between groups.

Wistar rats = test: Reperfusion injury after bilateral common carotid artery clamping, morphological examination of cerebral tissue; type: in vivo; conditions: Rb2 purity 90%, 10 mg/kg iv after reperfusion, brains examined 1 hour after administration
Procedure: Male Wistar rats weighing 300±20 g were supplied by the Animal Office of Tianjin Institute of Pharmaceutical Research.
Rb2 was prepared with NS in a ratio of […] for intravenous injection in rats before use.
30 rats were randomly divided into 3 groups with 10 rats in each group. The sham operation group received (iv) physiological saline, the model group received (iv) physiological saline and the Rb2 (with a purity of 90%) group received (iv) 10 mg/kg. All groups were administered through intravenous injection after reperfusion injury.
The rats were weighed at the time of experiment. They were anaesthetized by urethane (lg/kg) through intraperitoneal injection, laid on their back on the operation table, and cut in the middle of the neck. The common carotid arteries on both sides were dissected and clamped using small-sized artery clamps. 2 hours later, the clamps were loosened to restore blood supply, and the animals were given intravenous administration immediately. The rats were decapitated 1 hour after the administration, the brains were removed and placed into a 10% formaldehyde solution for fixation, followed by morphological examination of the cerebral tissue.

`CC(C)=CCC[C@](C)(O[C@@H]1O[C@H](CO[C@@H]2OC[C@H](O)[C@H](O)[C@H]2O)[C@@H](O)[C@H](O)[C@H]1O)[C@H]1CC[C@]2(C)[C@@H]1[C@H](O)C[C@@H]1[C@@]3(C)CC[C@H](O[C@@H]4O[C@H](CO)[C@@H](O)[C@H](O)[C@H]4O[C@@H]4O[C@H](CO)[C@@H](O)[C@H](O)[C@H]4O)C(C)(C)[C@@H]3CC[C@]12C` [Rb2 (98%), ginsenoside Rb2] was tested, and the “Final weight of thrombus” value (thrombi; 1 mg/ml in NS) was 5.5 ± 3.2 mg and the Thrombolysis rate % (thrombi; 1 mg/ml in NS) was 71.5%.

For `CC(C)=CCC[C@](C)(O[C@@H]1O[C@H](CO[C@@H]2OC[C@H](O)[C@H](O)[C@H]2O)[C@@H](O)[C@H](O)[C@H]1O)[C@H]1CC[C@]2(C)[C@@H]1[C@H](O)C[C@@H]1[C@@]3(C)CC[C@H](O[C@@H]4O[C@H](CO)[C@@H](O)[C@H](O)[C@H]4O[C@@H]4O[C@H](CO)[C@@H](O)[C@H](O)[C@H]4O)C(C)(C)[C@@H]3CC[C@]12C` [Rb2, ginsenoside Rb2], the “Dry weight of thrombus” value ([1]; Rb2 purity 93.9%, 2.5 mg/kg) was 8.50 ± 1.91 mg, the “Inhibition % (dry weight of thrombus)” value ([1]; Rb2 purity 93.9%, 2.5 mg/kg) was 15.59% and the “Inhibition % (wet weight of thrombus)” value ([1]; Rb2 purity 93.9%, 2.5 mg/kg) was 8.71%. The “Wet weight of thrombus” value ([1]; Rb2 purity 93.9%, 2.5 mg/kg) was 31.75 ± 8.54 mg, the “Dry weight of thrombus” value ([1]; Rb2 purity 93.9%, 5 mg/kg) was 6.60 ± 1.35 mg and the “Inhibition % (dry weight of thrombus)” value ([1]; Rb2 purity 93.9%, 5 mg/kg) was 34.46%. For the same molecule, the “Inhibition % (wet weight of thrombus)” value ([1]; Rb2 purity 93.9%, 5 mg/kg) was 34.73%, the “Wet weight of thrombus” value ([1]; Rb2 purity 93.9%, 5 mg/kg) was 22.70 ± 4.94 mg and the “Dry weight of thrombus” value ([1]; Rb2 purity 93.9%, 10 mg/kg) was 6.87 ± 1.73 mg. For the same molecule, the “Inhibition % (dry weight of thrombus)” value ([1]; Rb2 purity 93.9%, 10 mg/kg) was 31.72%, the “Inhibition % (wet weight of thrombus)” value ([1]; Rb2 purity 93.9%, 10 mg/kg) was 23.43% and the “Wet weight of thrombus” value ([1]; Rb2 purity 93.9%, 10 mg/kg) was 26.63 ± 5.04 mg. For the same molecule, the Relative thrombolysis % (blood clots; 50 μg/ml) was 27.4 ± 8.3 %, the “Weight of blood clot After lysis” value (blood clots; 50 μg/ml) was 78.9 ± 17.8 mg and the Relative thrombolysis % (blood clots; 100 μg/ml) was 28.0 ± 9.1 %. The “Weight of blood clot After lysis” value (blood clots; 100 μg/ml) was 81.4 ± 13.4 mg, the Relative thrombolysis % (blood clots; 200 μg/ml) was 27.1 ± 9.1 % and the “Weight of blood clot After lysis” value (blood clots; 200 μg/ml) was 81.8 ± 13.4 mg. The Thrombolysis rate % (thrombi; 1 mg/ml in NS, listed as Ginsenoside monomer Rb2) was ≥ 70%, the Blood flow velocity (KunMing mice [2]) was 238 ± 22.59 um/s and the Caliber of artery (KunMing mice [2]) was 39.08 ± 1.80 um. For the same molecule, the Caliber of vein (KunMing mice [2]) was 59.9 ± 3.58 um, the “Degree of cardiomyopathy +++, number of animals” value (KunMing mice [3]) was 1 and the “Degree of cardiomyopathy ++, number of animals” value (KunMing mice [3]) was 2. The “Degree of cardiomyopathy +, number of animals” value (KunMing mice [3]) was 3, the “Degree of cardiomyopathy −, number of animals” value (KunMing mice [3]) was 4 and the Input branch (mice) was 36.42 ± 0.81[…] um/s. For the same molecule, the Output branch (mice) was 65.77 ± 3.14 um/s and the “Pathological changes of cerebral edema and cerebral ischemia vs model control group” value (Wistar rats) was “alleviated remarkably”.

For Urokinase [reference compound], the “Dry weight of thrombus” value ([1]; 5000 U (5000 U/kg)) was 6.62 ± 1.85 mg, the “Inhibition % (dry weight of thrombus)” value ([1]; 5000 U (5000 U/kg)) was 34.26% and the “Inhibition % (wet weight of thrombus)” value ([1]; 5000 U (5000 U/kg)) was 25.37%. For the same molecule, the “Wet weight of thrombus” value ([1]; 5000 U (5000 U/kg)) was 25.37 ± 6.37 mg, the Relative thrombolysis % (blood clots; 50 U/ml) was 32.7 ± 10.0 % and the “Weight of blood clot After lysis” value (blood clots; 50 U/ml) was 73.8 ± 11.3 mg. For the same molecule, the “Final weight of thrombus” value (thrombi; 1000 U/ml in NS) was 0 mg and the Thrombolysis rate % (thrombi; 1000 U/ml in NS) was 100%.
